In patent US20220047687A1, “CHEMICAL SCALPEL” (FUNDACIÓN INSTITUTO DE INVESTIGACIÓN SANITARIA FUNDACIÓN …, priority 2019, published 2022):
Entries after “also recorded” stand apart in the source; their conditions may differ.

Columns and labels:
cytokines and chemokines = test: Cytokines circulating in plasma after collagenase washing; assay type: in vivo, rat
Procedure: A new blood test was performed with the 10 rats in the 1st group. For each of them, blood was taken 15 days after surgery. Post-collagenase cytokines were analyzed.
A new blood test is performed on the 6 rats in the 2nd group on 26/07/2018 and on the 4 controls.
Post-collagenase cytokines are analyzed

[1] = system: peritoneal adhesions (polypropylene mesh); test: Peritoneal adhesion model group 1 (10 small polypropylene mesh pieces): mesh release; assay type: in vivo, rat
From the text: Intervention of 5 6-week old Wistar rats of a total of 10 rats belonging to a first group (Group 1). Prior inhalation anesthesia with Forane, the animal being shaved, and aseptic measures being implemented, a minimal opening is made in the skin and the abdominal wall to implant 10 small pieces of polypropylene mesh, five on each side of the midline. They are cut into small 0.5 cm^2 pieces previously wetted with pss (physiological saline solution (0.9% ClNa).
After that (two days later than the first intervention), intervention is performed on the remaining 5 Wistar rats of group 1, and identical follow-up of weight and wound progression, with the administration of analgesia for the next 72 hours.
Four months after the application of the intraperitoneal prostheses, the animals are operated on again for the phase final of the experiment. Before that blood is drawn. First, the experiments are performed on rats belonging to group 1. The study is randomized in pairs and single-blind (investigator). […] Next, the results obtained in each of the operated rats are collected: • 1. R13, 295 g: Dictation: “To the naked eye no meshes are found. At the mesentery and terminal ileum of the cecum there is an area that is folded over and apparently comprises small pieces of mesh. There are no adhesions to the closure of the abdominal wall. Non-traumatic entry.”

[2] = system: peritoneal carcinomatosis (DHD cells); test: Survival and necropsy of rats with carcinomatosis after peritoneal washing (groups D, E, F); assay type: in vivo, rat; settings: group F, collagenase 37 U/ml, 3 animals
Procedure: (§1) The procedure was performed 2 times in the TCQ group, the first time with collagenase and after 2 minutes peritoneal washing with mitomycin C at the different concentrations to be tested was repeated. […] Blood was also collected from all the animals before sacrificing them, the blood was processed within the hour following its extraction to obtain plasma and to analyze, on one hand, the existence of the mutated KRAS oncogene (mutation in codon 12 of exon 1 expressed by DHD cells), and on the other hand the existence of collagenase traces or residues in blood after the peritoneal washes. A digital PCR was used for the KRAS oncogene localization study. For the collagenase trace study, the anonymized samples were sent to Lyposmol laboratories for the performance of specific anti-MMP-1 and anti-MMP-2 ELISAS.
Each group initially consisted of 6 rats (2×3).

MMP-1 = test: ELISA for collagenase residues in blood, anti-MMP-1; assay type: in vivo, rat; settings: after treatment and the follow-up period, all animals
Procedure: as §1

[3] = system: mesothelial layer covering the intestinal tract; test: First tests of peritoneal washing with collagenase on rat (Wistar); assay type: in vivo; settings: optimum concentration and time (35 U/mL, 10-15 minutes)
Procedure: For the purpose of fine-tuning the volume of the cavity and the optimum treatment time so that no organ in the cavity will sustain any damage, twenty 6-week old Wistar rats weighing 250 grams were used, and they were tested at different concentrations of 35 U/mL of collagenase and 37 U/mL of collagenase for clinical use. Up until now, all the studies had been performed with collagenase for experimental use, nevertheless, the choice was made to use collagenase authorized for clinical use from now on, taking into account the potency equivalence calculations requested from the manufacturer. A study was then conducted using different times of treatment with collagenase from 2 minutes to 30 minutes (30, 20, 15, 10, 5, and 2) with n=2 in the 4 intermediate times.

Question: Which results are given for Collagenase?
Answer: IL4 in plasma vs PBS (cytokines and chemokines; anti-inflammatory cytokine): Insignificant increase; IL10 in plasma vs PBS (cytokines and chemokines; anti-inflammatory cytokine): Insignificant increase; levels of all the cytokines and chemokines between the 2 groups (cytokines and chemokines; at four months): normalized; G-CSF in plasma vs PBS (cytokines and chemokines; chemokines): no difference; GM-CSF in plasma vs PBS (cytokines and chemokines; chemokines): no difference; KC in plasma vs PBS (cytokines and chemokines; chemokines): no difference; M-MCF in plasma vs PBS (cytokines and chemokines; chemokines): no difference; MCP1 in plasma vs PBS (cytokines and chemokines; chemokines): significant increase; MIP3a in plasma vs PBS (cytokines and chemokines; chemokines): no difference; MIPla in plasma vs PBS (cytokines and chemokines; chemokines): no difference; RANTRES in plasma vs PBS (cytokines and chemokines; chemokines): no difference; VEGF in plasma vs PBS (cytokines and chemokines; chemokines): significant increase; IL12-p70 in plasma vs PBS (cytokines and chemokines; pro-inflammatory cytokine): Significant increase (p<0.01); INF-gamma in plasma vs PBS (cytokines and chemokines; pro-inflammatory cytokine): no differences; TNF-alpha in plasma vs PBS (cytokines and chemokines; pro-inflammatory cytokine): Significant increase (p<0.01); IL1a in plasma vs PBS (cytokines and chemokines; regulatory cytokine): no difference; IL1b in plasma vs PBS (cytokines and chemokines; regulatory cytokine): no difference; IL2 in plasma vs PBS (cytokines and chemokines; regulatory cytokine): significant increase (p<0.05); IL5 in plasma vs PBS (cytokines and chemokines; regulatory cytokine): no difference; IL6 in plasma vs PBS (cytokines and chemokines; regulatory cytokine): no difference; IL7 in plasma vs PBS (cytokines and chemokines; regulatory cytokine): no difference; IL13 in plasma vs PBS (cytokines and chemokines; regulatory cytokine): no difference; IL17a in plasma vs PBS (cytokines and chemokines; regulatory cytokine): no difference; IL18 in plasma vs PBS (cytokines and chemokines; regulatory cytokine): significant increase (p<0.05); mesh and adhesion release after washing (dictation) ([1]; 0.05% in PBS, 20 ml, 20 minutes, 37° C., single rats R11, R12, R17, R18, R19 in block order): one of the balls of hypochondrium loops breaks up with slight pulling and several pieces of mesh (3) are released; also recorded: mesh seen in the omentum is readily released with slight pulling. Another mesh in the suprapubic fat is dissected and released without damaging the fatty aggregate, 6 pieces of mesh being released with digital dissection and without bleeding; also recorded: One of the meshes contained in the ball of the terminal ileum separates completely with slight pulling; also recorded: Mesh separates from the hepatic omentum with slight pulling (there are two meshes, one of them is not readily separated successfully); efficacy in extracting meshes ([1]; group 1, blind study randomized in pairs, 0.05%, PBS control 8%): 42%; Observations (necropsy) ([2]; 1 month): Localized carcinomatoses in intestine; also recorded: No adhesions; Observations (necropsy) ([2]; 2 months): Localized carcinomatoses in abdomen; also recorded: with nodules in liver. No adhesions; collagenase residues in blood, MMP-1 ELISA (MMP-1): negative; macroscopic and histological findings [3]: No organ or tissue impairment is observed histologically; also recorded: elimination of the mesothelial cells covering the intestine and omentum is observed but without the involvement of any organ; also recorded: thinning of the mesothelial layer covering the intestinal tract without the involvement of intermediate or internal layers
